# Target: T1, VmFbpA (ferric ion-binding protein A) (Vibrio metschnikovii, UniProt A0A9X0R8I3)
# T1 construct: gene H8Q88_11990; WP_004394209.1 without the signal peptide '[…]'; 6× His-tag-free apo VmFbpA
# Test: ITC of RA into apo VmFbpA (single-site model); supported by UV-vis peak shift and Fe3+ pull-down inhibition by ICP-MS (IC50 […])
# T1 sequence (A0A9X0R8I3 entry or part of it): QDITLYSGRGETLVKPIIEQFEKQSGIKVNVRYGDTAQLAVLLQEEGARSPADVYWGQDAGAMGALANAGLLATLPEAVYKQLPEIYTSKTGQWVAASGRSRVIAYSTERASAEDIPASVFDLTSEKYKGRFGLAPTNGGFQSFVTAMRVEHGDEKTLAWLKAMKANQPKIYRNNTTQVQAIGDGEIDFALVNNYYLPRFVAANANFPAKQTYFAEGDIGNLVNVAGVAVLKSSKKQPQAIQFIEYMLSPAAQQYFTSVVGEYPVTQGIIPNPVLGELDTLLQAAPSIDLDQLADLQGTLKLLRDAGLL
compound,measurement,value
"O=C(/C=C/c1ccc(O)c(O)c1)O[C@H](Cc1ccc(O)c(O)c1)C(=O)O [RA, rosmarinic acid]",Kd,8 ± 1 µM

# From article PMC8657459, “Rosmarinic Acid and Sodium Citrate Have a Synergistic Bacteriostatic Effect against Vibrio Species by Inhibiting Iron Uptake” (International Journal of Molecular Sciences, 2021)
